The values that follow come from publication PMC5796017, “Enantiomeric Effect of D-Amino Acid Substitution on the Mechanism of Action of α-Helical Membrane-Active Peptides” (International Journal of Molecular Sciences, 2017).

The subject of data set [1] is E. coli ATCC25922. Description: Antimicrobial activity, microtiter dilution MIC. Format: cell-based, Escherichia coli. The settings on record: G−; MH medium, 5 × 10^5 CFU/mL, 37 °C, 24 h, triplicate. An outline of the steps: (§1)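 Broth microdilution in Mueller–Hinton medium, inoculum 5 × 10^5 CFU/mL, serially diluted peptide, 24 h at 37 °C. MIC taken as lowest peptide concentration preventing growth; triplicate runs.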

Data set [2] in a line: RP-HPLC retention time as relative hydrophobicity. Format: physicochemical. The settings on record: 25 °C, used by the paper as measure of relative hydrophobicity. The protocol: The RP-HPLC retention time has been widely used to represent the relative hydrophobicity of peptides in many studies.The relative hydrophobicity of the peptides was determined by the RP-HPLC retention times at 25 °C. The change in hydrophobicity of the peptides caused by D-amino acid substitutions was mainly due to the disruption of the helical structure.

Data set [3] in a line: Circular dichroism (CD) secondary structure. Format: physicochemical. The method in brief:
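Peptide secondary structure was measured by circular dichroism on a Jasco J-810 CD spectrometer at 25 °C, in benign KP buffer to mimic a hydrophilic environment and in 50% 2,2,2-trifluoroethanol (benign buffer: TFE = 1:1, vol/vol) to mimic a membrane-like hydrophobic environment. Mean residue molar ellipticity at 222 nm, [θ]222 (degree·cm^2·dmol^−1), calculated as [θ] = θ/10lCMn, gave relative helical content.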

Data set [4] has as its system HeLa. In words: MTT cell viability assay. Format: cell-based, human. The settings on record: 24 h, mean ± SEM of three independent determinations. The method in brief: (§2)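 Cells seeded at 5000 per well in DMEM/10% FBS, exposed to peptides for 24 h at 37 °C. Viability by MTT, formazan dissolved in DMSO, absorbance at 492 nm. IC50 is the concentration giving 50% viability loss; triplicate.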
Background: Formazan colour is commonly taken as a measure of viable cells.

Data set [5] concerns MIA PaCa-2. In words: MTT cell viability assay. Conditions: MIA PaCa-2, MTT, 24 h; mean ± SEM of three independent determinations. Format: cell-based, human. The method in brief: as §2
For data set [6], the system named is BxPC-3. In words: MTT cell viability assay. The settings on record: BxPC-3, MTT, 24 h; mean ± SEM of three independent determinations. Format: cell-based, human. An outline of the steps: as §2
Data set [7] deals with HPAC. Description: MTT cell viability assay. Format: cell-based, human. The settings on record: 24 h, mean ± SEM of three independent determinations. An outline of the steps:
as §2

Data set [8] deals with S. epidermidis ATCC12228. In words: Antimicrobial activity, microtiter dilution MIC. Format: cell-based, Staphylococcus epidermidis. The settings on record: G+; MH medium, 5 × 10^5 CFU/mL, 37 °C, 24 h, triplicate. The method in brief:
as §1

Data set [9] relates to P. aeruginosa ATCC27853. Description: Antimicrobial activity, microtiter dilution MIC. Format: cell-based, Pseudomonas aeruginosa. Conditions: G−; MH medium, 5 × 10^5 CFU/mL, 37 °C, 24 h, triplicate. The method in brief:
as §1

The test system of data set [10] is E. coli ATCC25922. Description: Outer membrane permeability assay (NPN uptake). Format: cell-based, Escherichia coli. Conditions: 16 μM peptide, 10 min, excitation 350 nm, emission 420 nm. The source says: To explore the potential role of the helicity of the peptides in damaging cell membranes, we investigated the disruption of the outer membrane of Escherichia coli (E. coli) by quantifying the fluorescence intensity of 1-N-phenylnaphthylamine (NPN), which is a hydrophobic fluorescent probe. The intensity of NPN is weak in a hydrophilic environment. The fluorescence intensity of NPN gradually increases as it is exposed to a more hydrophobic environment due to damage to the bacterial outer membrane by MAPs.
The outer membrane permeability of the peptides against E. coli ATCC25922 was evaluated using the hydrophobic fluorescent probe NPN, as performed previously. In brief, E. coli was cultured in LB medium at 37 °C until the absorbance of the bacterial suspension at 600 nm was 0.4–0.6, the bacterial pellet was collected by centrifugation and resuspended in a reaction buffer (pH 7.4, 5 mM HEPES, 5 mM NaN3, 0.25 mM NPN) until the absorbance at 600 nm was 0.5. Then, an aliquot of the peptide sample and the bacterial suspension were co-incubated to give a final peptide concentration of 16 μM. The same volume of reaction buffer was used as the negative control. A Shimadzu RF-5301 PC fluorescent spectrometer (excitation wavelength of 350 nm, emission wavelength of 420 nm) was used to collect data continuously for 10 min.

Values after ≈ are worked out from the molar mass of the structure shown.

By MIC is commonly meant the least concentration at which growth counts as inhibited. The IC50 is the concentration that gives 50% inhibition. Higher therefore signals weaker potency in that assay. On to `CC[C@H](C)[C@H](NC(=O)[C@H](C)NC(=O)[C@H](CCCCN)NC(=O)[C@H](CC(C)C)NC(=O)[C@H](C)NC(=O)[C@@H](NC(=O)[C@H](Cc1cnc[nH]1)NC(=O)[C@H](CC(C)C)NC(=O)[C@@H](NC(=O)[C@@H](NC(=O)[C@H](CCCCN)NC(=O)[C@H](CCCCN)NC(=O)[C@H](C)NC(=O)[C@H](CO)NC(=O)[C@H](CCCCN)NC(=O)[C@H](Cc1ccccc1)NC(=O)[C@@H](NC(=O)[C@H](CCCCN)NC(=O)[C@H](CC(C)C)NC(=O)[C@H](Cc1ccccc1)NC(=O)[C@H](CO)NC(=O)[C@H](CCCCN)NC(=O)[C@H](Cc1c[nH]c2ccccc12)NC(=O)[C@H](CCCCN)NC(C)=O)[C@@H](C)O)[C@@H](C)O)C(C)C)[C@@H](C)O)C(=O)N[C@@H](CO)C(=O)N[C@@H](CO)C(N)=O` [Peptide V13K], for which the MIC in data set [1] stood at 8 µM (≈ 23.9 µg/mL); in [8], 4 µM (≈ 12 µg/mL); in [9] it was 8 µM (≈ 23.9 µg/mL). Besides, the “tR (RP-HPLC retention time), relative hydrophobicity” value in data set [2] was 44.48 min. For the same molecule, the “[θ]222, benign” value in [3] (CD, KP buffer (100 mM KCl, 50 mM KH2PO4/K2HPO4, pH 7.4), 75 μM peptide, 25 °C) was −5617.46 degree·cm^2·dmol^−1. Moreover, in [3] (CD, KP buffer with 50% TFE, 75 μM peptide, 25 °C), the “[θ]222, 50% TFE” value is −50,520.3 degree·cm^2·dmol^−1. Also, in [3] (KP buffer with 50% TFE, relative to molar ellipticity of V13K in 50% TFE), the “α-Helix (%), 50% TFE (relative helicity)” value came out at 100%. In addition, in [3] (KP buffer, relative to molar ellipticity of V13K in 50% TFE), the “α-Helix (%), benign” value is listed as 11.1%. Moreover, the IC50 in [4] was 16 ± 0.5 µM; in data set [5], 24.8 ± 0.6 µM; in [6], 12.5 ± 1.2 µM; in data set [7], 7.6 ± 4 µM. The “Outer membrane permeabilization, NPN fluorescence intensity” value in data set [10] was “enhanced”.
